Measurements published in patent EP0063946A1, “Diagnosis of kidney function” (priority 1981, dated 1982).

How the values were obtained:
[1] = Animal biodistribution and clearance studies in rats; format: in vivo
Protocol: Samples for animal biodistribution studies were administered 1-2 hours post preparation.
Comparative data for Hippuran, Tc-99m TDG and Tc-99m DTPA in rats is set out in Table II.

[2] = background statement; cited from earlier work

## O=C(O)CNC(=O)c1ccccc1[131I] [Hippuran, sodium iodohippurate]
[1]
  Clearance half time: 10.4 min
[1]; 30 min p.i.
  % in urine at 30 min p.i.: 82.6%
[1]; 2 hour dissection
  2 hour dissection (% injected dose) Bladder: 93.0 % injected dose
  2 hour dissection (% injected dose) Intestine: 2.5 % injected dose
  2 hour dissection (% injected dose) Kidney: 0.2 % injected dose
  2 hour dissection (% injected dose) Liver: 0.2 % injected dose
[2]
  removed from the blood in a single pass through the kidney: About 80%
